Literature values as cited in patent US7189730B2, “A2A adenosine receptor antagonists” (CV Therapeutics, Inc., priority 2001, dated 2007).

Assays:
[1] = system: experimentally induced cataleptic responses; conditions: in vivo
[2] = system: haloperidol-induced catalepsy; conditions: rat; Mandhane et al. 1997

In the case of `Cn1c(=O)c2[nH]cnc2n(C)c1=O` [theophylline], the “improvement of symptoms in Parkinson's patients” value (Parkinson's patients) is given as “significant improvement of symptoms”.

For `CCCn1c(=O)c2c(nc(/C=C/c3ccc(OC)c(OC)c3)n2C)n(CCC)c1=O` [KF 17837], the “effect on experimentally induced cataleptic responses” value [1] is listed as “ameliorates”.

For `N[C@@H](Cc1ccc(O)c(O)c1)C(=O)O` [L-DOPA], the “effect on haloperidol-induced catalepsy” value [2] is listed as “block”.
